Results as given in PMC7290078, “Agonist bias and agonist‐dependent antagonism at corticotrophin releasing factor receptors” (Pharmacology Research & Perspectives, 2020).
Entries after “also recorded” stand apart in the source; their conditions may differ.

Key:
CRF1 receptor = details: cited from earlier work
CRF1 receptor (hCRF1α) = target: T1, CRF1 receptor (hCRF1α) (Homo sapiens, UniProt P34998); test: Antagonism of agonist-mediated cAMP accumulation in Cos7 cells expressing CRF1 receptors; type: cell-based; details: for allosteric effect α / effect on agonist efficacy β: CRF1, operational model of allosterism; for antagonist potency (pKB): hCRF1α, global Schild analysis, mean ± SEM
T1 construct: host or cells: Cos7 cells, transient transfection (PEI), pcDNA3.0/3.1 vector
T1 sequence (P34998 24-415): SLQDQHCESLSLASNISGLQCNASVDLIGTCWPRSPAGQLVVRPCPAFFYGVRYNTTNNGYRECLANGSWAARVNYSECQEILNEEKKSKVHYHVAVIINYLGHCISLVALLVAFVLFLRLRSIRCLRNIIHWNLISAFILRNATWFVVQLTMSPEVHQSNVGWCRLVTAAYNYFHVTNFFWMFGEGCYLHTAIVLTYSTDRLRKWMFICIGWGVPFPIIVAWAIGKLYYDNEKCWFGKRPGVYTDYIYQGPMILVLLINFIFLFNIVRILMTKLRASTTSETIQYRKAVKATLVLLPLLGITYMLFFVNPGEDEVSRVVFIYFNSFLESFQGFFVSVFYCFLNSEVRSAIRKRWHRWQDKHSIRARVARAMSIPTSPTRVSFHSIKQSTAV

CRF2 receptor (hCRF2α) = target: T2, CRF2 receptor (hCRF2α) (Homo sapiens, UniProt Q13324); test: Antagonism of agonist-mediated cAMP accumulation in Cos7 cells expressing CRF2 receptors; type: cell-based; details: for antagonist potency (pKB): hCRF2α, global Schild analysis, mean ± SEM, n = 5
T2 construct: host or cells: Cos7 cells, transient transfection (PEI), pcDNA3.0/3.1 vector
T2 sequence (Q13324 1-411): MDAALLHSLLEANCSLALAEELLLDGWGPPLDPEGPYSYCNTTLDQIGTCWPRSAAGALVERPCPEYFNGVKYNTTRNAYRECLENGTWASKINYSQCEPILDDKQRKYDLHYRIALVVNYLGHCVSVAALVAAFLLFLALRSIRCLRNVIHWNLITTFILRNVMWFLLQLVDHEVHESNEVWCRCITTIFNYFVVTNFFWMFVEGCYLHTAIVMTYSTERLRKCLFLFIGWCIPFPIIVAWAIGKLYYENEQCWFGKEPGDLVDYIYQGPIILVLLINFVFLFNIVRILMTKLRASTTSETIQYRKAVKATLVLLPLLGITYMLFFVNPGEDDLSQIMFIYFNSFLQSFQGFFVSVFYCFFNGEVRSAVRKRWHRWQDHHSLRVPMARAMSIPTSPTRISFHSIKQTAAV
From the text: Plasmids containing hCRF1α and hCRF2α (GenBank accession numbers AY457172 and AY449734) were obtained from the cDNA Resource Centre (Bloomsburg University) and are referred to as CRF1 and CRF2 in this manuscript. Hemagglutinin (HA) epitope‐tagged human Calcitonin (CT) receptor (CT(a) splice variant) and myc‐tagged human RAMP1 were used as described previously. ^27 HA‐tagged human calcitonin receptor‐like receptor (CLR), N‐terminal FLAG‐tagged human RAMP3 and N‐terminal myc‐tagged human RAMP3 were a gift from Professor David Poyner (Aston University) and Professor Patrick Sexton (Monash University), respectively. N‐terminal FLAG‐tagged human RAMP2 was used as described previously. ^28 All receptors and RAMPs were cloned in pcDNA3.0 or pcDNA3.1 plasmid vectors. All plasmid inserts were sequenced at the Centre for Genomics, Proteomics and Metabolomics (University of Auckland) and the sequences were verified prior to use.
Cos7, HEK‐293S, and HEK‐293T cells were cultured as described previously. ^28 , ^29 Cos7 cells were originally supplied by the ATCC to Associate Professor Nigel Birch (University of Auckland). HEK‐293S cells were a gift from Professor David Poyner (Aston University) and HEK‐293T cells a gift from Professor John Taylor (University of Auckland). Briefly, all cell lines were cultured in Dulbecco's Modified Eagle Medium (DMEM) supplemented with 8% heat inactivated fetal bovine serum (FBS) and maintained in a humidified incubator at 37°C with 5% CO2. For transfection, cells were counted (Countess CounterTM; Life Technologies) and plated at a density of 20 000 cells per well in 96‐well plates. The cells were transiently transfected 48 hours prior to assaying using polyethylenimine (PEI), as described previously. ^28 , ^29 In all experiments a total of 0.25 μg DNA was transfected per well. In the majority of experiments 0.25 μg DNA of receptor‐containing plasmid or the pcDNA3.1 plasmid without an insert was used. For experiments involving RAMPs, 0.125 μg of receptor DNA and 0.125 μg of RAMP‐containing plasmid DNA were transfected to give a 1:1 ratio of receptor to RAMP. Where the RAMP or receptor were transfected alone, the ratio of DNA was made up with the pcDNA3.1 plasmid.
cAMP accumulation in Cos7 cells transfected with hCRF1α or hCRF2α receptors was measured using the LANCE cAMP detection assay kit (PerkinElmer Life and Analytical Sciences) as described previously. ^30 Briefly, culture media was removed and replaced with DMEM containing 0.1% bovine albumin serum (BSA) and 1 mmol/L 3‐isobutyl‐1‐methylxanthine (IBMX) for 30 minutes at 37°C. Cells were incubated for an additional 15 minutes at 37°C with media or agonist concentrations of 1 pmol/L to 1 µmol/L for agonist only assays or 10 pmol/L to 10 µmol/L concentrations for antagonist experiments. Antagonists were added simultaneously or immediately prior to the addition of agonists. To stop cell stimulation and extract cAMP, the contents of the wells were replaced with 50 µL absolute ethanol. Samples were left at −20°C for a minimum of 10 minutes. The ethanol was evaporated and replaced with 50 µL of cAMP detection buffer. Samples were shaken for 15 minutes before 5 µL cell lysate was transferred to a white 384‐well optiplate and processed for cAMP quantification as described previously. ^31 Samples were read using an Envision plate reader (PerkinElmer). cAMP concentrations were determined from a standard curve generated in duplicate.
In all experiments the position of peptides and antagonists (pharmacology) or transfected receptors (ELISAs) on assay plates was randomized during each independent experiment, which are independent biological replicates. In all cases, duplicate, triplicate, or quadruplicate technical replicates were conducted for each independent experiment.

## CCC(CC)Nc1cc(C)nc(Oc2c(C)cc(C)cc2C)c1C [CP‐376,395]
CRF1 receptor
  selectivity: selective for the CRF1 receptor
CRF1 receptor (hCRF1α)
  partial agonism / intrinsic activity: No intrinsic activity; also recorded: no evidence of partial agonism
CRF1 receptor (hCRF1α); 75 minute pre‐incubation, preliminary cAMP antagonism experiment
  effect of pre‐incubation on antagonism: did not increase antagonism or result in a reduction of E max
CRF1 receptor (hCRF1α); CRF and UCN1‐mediated cAMP, CRF1 receptor, F tests
  effect on agonist E max: no significant difference in E max values
CRF1 receptor (hCRF1α); agonist CRF, cAMP
  allosteric effect α: 0.005
  effect on agonist efficacy β: 0.63
CRF1 receptor (hCRF1α); agonist CRF, cAMP, n = 5
  antagonist potency (pKB): 6.90 ± 0.20
CRF1 receptor (hCRF1α); agonist UCN1, cAMP
  allosteric effect α: 0.03
  effect on agonist efficacy β: 0.63
CRF1 receptor (hCRF1α); agonist UCN1, cAMP, n = 5 (CP‐376,395), n = 3 (astressin2B)
  antagonist potency (pKB): 5.32 ± 0.14
CRF1 receptor (hCRF1α); antagonism of CRF‐induced cAMP signaling
  potency at CRF1 receptor compared to CRF2 receptor: at least 800 fold
CRF1 receptor (hCRF1α); antagonism of UCN1‐induced cAMP signaling
  potency at CRF1 receptor compared to CRF2 receptor: ≥ 20 fold
CRF1 receptor (hCRF1α); cAMP accumulation
  mode of antagonism: competitive antagonist of cAMP accumulation
CRF2 receptor (hCRF2α); 100 µM, CRF2 receptor
  effect on CRF‐mediated cAMP accumulation: no effect
  effect on UCN1‐mediated cAMP accumulation: no effect
CRF2 receptor (hCRF2α); agonist CRF, cAMP
  antagonist potency (pKB): <4
CRF2 receptor (hCRF2α); agonist UCN1, cAMP
  antagonist potency (pKB): <4
